In the supplement of paper PMC13380429:
± gives the standard deviation of the averaged measurements.

Legend:
Conditions in all cases: 72 h
Calu-3 [1] = experiment: drug sensitivity score (DSS) for viability; higher = more toxic; extreme values may be limits of the assay
U2OS [2] = experiment: as above
HepG2 [3] = experiment: as above
Vero E6 [4] = experiment: as above
Caco-2 [5] = experiment: as above
Calu-3 [6] = experiment: cell viability relative to DMSO; higher = less toxic
U2OS [7] = experiment: as above
HepG2 [8] = experiment: as above
Vero E6 [9] = experiment: as above
Caco-2 [10] = experiment: as above
Calu-3 [11] = experiment: relative viability EC50 (midpoint between 100% and the lowest measured viability); higher = less toxic
U2OS [12] = experiment: as above
HepG2 [13] = experiment: as above
Vero E6 [14] = experiment: as above
Caco-2 [15] = experiment: as above

Compound | drug sensitivity score (Calu-3 [1]) | drug sensitivity score (U2OS [2]) | drug sensitivity score (HepG2 [3]) | drug sensitivity score (Vero E6 [4]) | drug sensitivity score (Caco-2 [5]) | cell viability (Calu-3 [6]; 1 nM) [%] | cell viability (Calu-3 [6]; 10 nM) [%] | cell viability (Calu-3 [6]; 100 nM) [%] | cell viability (Calu-3 [6]; 1000 nM) [%] | cell viability (Calu-3 [6]; 10000 nM) [%] | cell viability (U2OS [7]; 1 nM) [%] | cell viability (U2OS [7]; 10 nM) [%] | cell viability (U2OS [7]; 100 nM) [%] | cell viability (U2OS [7]; 1000 nM) [%] | cell viability (U2OS [7]; 10000 nM) [%] | cell viability (HepG2 [8]; 1 nM) [%] | cell viability (HepG2 [8]; 10 nM) [%] | cell viability (HepG2 [8]; 100 nM) [%] | cell viability (HepG2 [8]; 1000 nM) [%] | cell viability (HepG2 [8]; 10000 nM) [%] | cell viability (Vero E6 [9]; 1 nM) [%] | cell viability (Vero E6 [9]; 10 nM) [%] | cell viability (Vero E6 [9]; 100 nM) [%] | cell viability (Vero E6 [9]; 1000 nM) [%] | cell viability (Vero E6 [9]; 10000 nM) [%] | cell viability (Caco-2 [10]; 1 nM) [%] | cell viability (Caco-2 [10]; 10 nM) [%] | cell viability (Caco-2 [10]; 100 nM) [%] | cell viability (Caco-2 [10]; 1000 nM) [%] | cell viability (Caco-2 [10]; 10000 nM) [%] | relative viability EC50 (Calu-3 [11]) [µM] | relative viability EC50 (U2OS [12]) [µM] | relative viability EC50 (HepG2 [13]) [µM] | relative viability EC50 (Vero E6 [14]) [µM] | relative viability EC50 (Caco-2 [15]) [µM]
C[C@H](NC(=O)Cc1cc(F)cc(F)c1)C(=O)N[C@@H]1C(=O)N(C)c2ccccc2-c2ccccc21 | 0 | 0 | 0 | 0 | 0 | 106 | 89.5 | 90.6 | 97 | 94.9 | 94.8 | 96.8 | 90.9 | 91.5 | 93.1 | 112 | 95.7 | 102 | 98.2 | 98.6 | 100 | 98.7 | 97.1 | 102 | 109 | 89.5 | 88.6 | 93.1 | 94.3 | 96.7 | > 10 | > 10 | > 10 | > 10 | > 10
CCN(CC)C(=O)N1CCN(C)CC1 [diethylcarbamazine] | 0 | 0 | 0 | 0 | 0 | 102 | 91.4 | 103 | 103 | 102 | 103 | 97.8 | 102 | 91.4 | 98.1 | 88.1 | 100 | 105 | 101 | 107 | 103 | 97.5 | 102 | 103 | 99.3 | 98.2 | 95.4 | 97.2 | 88.5 | 99.9 | > 10 | > 10 | > 10 | > 10 | > 10
C/N=C(/NC#N)NCCSCc1csc(NC(=N)N)n1 [tiotidine] | 0 | 0 | 0 | 0 | 0 | 99.5 | 97.2 | 91.7 | 101 | 104 | 105 | 96 | 97.9 | 98.6 | 106 | 96.4 | 105 | 98.3 | 108 | 113 | 91.5 | 96.6 | 96.6 | 92.8 | 108 | 102 | 94.4 | 104 | 104 | 110 | > 10 | > 10 | > 10 | > 10 | > 10
CCOC(=O)C1=C(N)Oc2ccc(Br)cc2C1C(C#N)C(=O)OCC (stereo not given) [HA-14-1] | 0 | 0 | 0 | 0 | 0 | 95.2 ± 7.3 | 105 ± 8.6 | 97 ± 0.99 | 98.2 ± 4.5 | 108.6 ± 0.14 | 95 | 99.9 | 99 | 101 | 110 | 100 ± 2.5 | 97.3 ± 9.6 | 98.2 ± 4.7 | 95.7 ± 7.4 | 96.8 ± 7.7 | 93 | 100 | 90 | 97.7 | 99.3 | 99 ± 3.9 | 95.2 ± 4.1 | 104 ± 4.9 | 99.7 ± 4.6 | 99.5 ± 5 | > 10 | > 10 | > 10 | > 10 | > 10
COc1cc2cc(c1Cl)N(C)C(=O)C[C@H](OC(=O)C(C)C)[C@]1(C)O[C@@H]1[C@H](C)[C@@H]1C[C@@](O)(NC(=O)O1)[C@H](OC)/C=C/C=C(\C)C2 [ansamitocin-p-3] | 27.7 | 37.6 | 33.8 | 35 | 28.4 | 62.6 | 53.6 | 36.7 | 37.4 | 37.8 | 39.6 | 29.1 | 19.9 | 17.9 | 16.3 | 39 | 32.4 | 38 | 33.8 | 30.9 | 72.1 | 32.5 | 29.8 | 21.2 | 18.4 | 45 | 47.9 | 39 | 40.9 | 35.1 | < 0.001 | < 0.001 | < 0.001 | 0.0021 | < 0.001
NCC(=O)N1C[C@H](NC(=O)c2ccccc2)C[C@H]1C(=O)O [danegaptide] | 0 | 0 | 0 | 0 | 0 | 98.6 | 93.3 | 101 | 96.4 | 91.1 | 93.6 | 93.6 | 98.5 | 101 | 99.3 | 106 | 102 | 99.7 | 101 | 104 | 101 | 101 | 93.8 | 99.9 | 106 | 98.3 | 97.1 | 90.7 | 86.3 | 107 | > 10 | > 10 | > 10 | > 10 | > 10
C[C@]12CC[C@H](O)CC1=CC[C@@H]1[C@@H]2CC[C@]2(C)C(=O)CC[C@@H]12 [PRASTERONE] | 0 | 0 | 0 | 0 | 0 | 94.9 | 81.2 | 98.3 | 96.6 | 108 | 97.4 | 102 | 102 | 97.5 | 100 | 104 | 101 | 94.2 | 92.3 | 92.2 | 99.5 | 101 | 98.7 | 98.7 | 95.2 | 96.8 | 99.4 | 91.4 | 100 | 92.6 | > 10 | > 10 | > 10 | > 10 | > 10
c1cc2c(cc1[C@H]1OC[C@H]3[C@@H]1CO[C@@H]3c1ccc3c(c1)OCO3)OCO2 [sesamin] | 0 | 0 | 0 | 0 | 0 | 109 | 103 | 102 | 98.1 | 90.1 | 96.9 | 100 | 102 | 104 | 99.3 | 105 | 107 | 102 | 91.1 | 106 | 99.8 | 103 | 94.6 | 99.3 | 99.4 | 93.7 | 95 | 98.4 | 95.7 | 89.2 | > 10 | > 10 | > 10 | > 10 | > 10
N#Cc1cc(NC(=O)C(=O)O)c(Cl)c(NC(=O)C(=O)O)c1 [lodoxamide] | 0 | 0 | 0 | 0 | 0 | 109 | 100 | 92.1 | 96.4 | 99.4 | 104 | 102 | 97.2 | 102 | 98.1 | 102 | 107 | 92.7 | 93.3 | 93.6 | 101 | 99.9 | 98.6 | 97.8 | 93.8 | 106 | 119 | 99.8 | 118 | 128 | > 10 | > 10 | > 10 | > 10 | > 10
CCCc1ccc(C(=O)O)cc1 [4-propylbenzoic-acid] | 0 | 0 | 0 | 0 | 0 | 106 | 106 | 101 | 96.4 | 97.2 | 98.5 | 94.9 | 99.8 | 98.9 | 102 | 106 | 106 | 93.7 | 104 | 98.3 | 93.2 | 97.4 | 91.9 | 92.2 | 103 | 96.6 | 96.4 | 105 | 89.7 | 106 | > 10 | > 10 | > 10 | > 10 | > 10
N#Cc1ccc(NCCNCC(=O)N2CCC[C@H]2C#N)nc1 [NVP-DPP728] | 0 | 0 | 0 | 0 | 0 | 101 | 92.1 | 96.5 | 104 | 110 | 96.2 | 98.3 | 101 | 102 | 99.4 | 112 | 98.6 | 102 | 97.3 | 106 | 97.5 | 97.8 | 90.3 | 91.6 | 104 | 96.6 | 100 | 97.1 | 106 | 104 | > 10 | > 10 | > 10 | > 10 | > 10
CCOc1nc2cccc(C(=O)OC(C)OC(=O)OC3CCCCC3)c2n1Cc1ccc(-c2ccccc2-c2nn[nH]n2)cc1 (stereo not given) [candesartan-cilexetil] | 0 | 0 | 0 | 0 | 0.1 | 93.1 | 105 | 99.5 | 105 | 105 | 93.7 | 106 | 93.6 | 90.9 | 92.7 | 98.3 | 103 | 104 | 102 | 100 | 107 | 106 | 109 | 104 | 99.1 | 95.6 | 100 | 91.4 | 101 | 86.5 | > 10 | > 10 | > 10 | > 10 | > 10
OCCCNc1ccccc1 [3-anilinopropan-1-ol] | 0 | 0 | 0 | 0 | 0 | 106 | 104 | 99.6 | 97 | 115 | 99.6 | 106 | 97.8 | 102 | 98.7 | 103 | 101 | 95.6 | 103 | 94.9 | 100 | 96.1 | 107 | 94.4 | 97.9 | 101 | 91.8 | 93.7 | 93.3 | 95.3 | > 10 | > 10 | > 10 | > 10 | > 10
CCc1cc(Cl)c(OC)c(C(=O)NC[C@@H]2CCCN2CC)c1O [eticlopride] | 0 | 0 | 0 | 0 | 0.1 | 105 | 102 | 103 | 99.9 | 98.5 | 99.1 | 106 | 96.3 | 103 | 94.8 | 115 | 108 | 121 | 106 | 91.4 | 107 | 102 | 106 | 102 | 94.7 | 102 | 101 | 92.5 | 103 | 87 | > 10 | > 10 | > 10 | > 10 | > 10
